This note sets out measurements from ChEMBL document CHEMBL5321200, “Discovery of the GSH responsive "Y-PROTACs" targeting ALK and CDK4/6 as a potential treatment for cancer” (Eur J Med Chem, 2023).

Series [1] in a line: Toxicity in BALB/c nude mouse xenografted with human NCI-H3122 cells assessed as effect on liver function at 50 mg/kg, IG administered once daily for 18 days by H and E staining based assay. The class given is organism-based. The note with it: in vivo, po, 432 h, time 18 day. (In general: Xenograft models place foreign cells or tissue in a host animal.)
Series [2] has as its system NCI-H3122. The series can be described thus: Antiproliferative activity against human NCI-H3122 cells assessed as inhibition of cell growth incubated for 5 days by MTT assay. The format is functional, cell-based. The note with it: NCI-H3122, 120 h. A general note: Formazan colour is commonly taken as a measure of viable cells.
Series [3] in a line: Toxicity in BALB/c nude mouse xenografted with human NCI-H3122 cells assessed as effect on spleen function at 50 mg/kg, IG administered once daily for 18 days by H and E staining based assay. The note with it: in vivo, po, 432 h, time 18 day. The format is organism-based.
The test system of series [4] is NCI-H3122. The series can be described thus: Antitumor activity against human NCI-H3122 cells xenografted in BALB/c nude mouse assessed as reduction in tumor volume at 50 mg/kg, IG administered once daily for 18 days and measured after 12 hrs of last dose. The class given is functional, organism-based. The note with it: time 444.0 hrs.
Series [5] has as its system NCI-H3122. The experiment in a line: Antitumor activity against human NCI-H3122 cells xenografted in BALB/c nude mouse assessed as tumor growth inhibition at 50 mg/kg, IG administered once daily for 18 days and measured after 12 hrs of last dose relative to control. The note with it: NCI-H3122, po, time 444 hrs, read-out: TGI. The format is functional.
Series [6] relates to NCI-H3122. The experiment in a line: Antiproliferative activity against human NCI-H3122 cells assessed as inhibition of cell growth incubated for 5 days in presence of 2-(4-(6-((6-acetyl-8-cyclopentyl-5-methyl-7-oxo-7,8-dihydropyrido[2,3-d]pyrimidin-2-yl)amino)pyridin-3-yl)piperazin-1-yl)-N-(2-mercaptoethyl)acetamide by MTT assay. The class given is functional, cell-based. The following applies: NCI-H3122, 120 h.

Series [7] can be described thus: Toxicity in BALB/c nude mouse xenografted with human NCI-H3122 cells assessed as effect on visceral heart morphology at 50 mg/kg, IG administered once daily for 18 days and measured after 12 hrs of last dose by H and E staining based assay. The following applies: in vivo, po, 444 h. The format is organism-based.
Series [8] is described as follows: Toxicity in BALB/c nude mouse xenografted with human NCI-H3122 cells assessed as effect on heart function at 50 mg/kg, IG administered once daily for 18 days and measured after 12 hrs of last dose by H and E staining based assay. The note with it: in vivo, po, 444 h. The class given is organism-based.
A short description of series [9]: Toxicity in BALB/c nude mouse xenografted with human NCI-H3122 cells assessed as reduction in body weight at 25 to 50 mg/kg, IG administered once daily for 18 days. The following applies: in vivo, po, 432 h, dose 25-50 mg/kg, time 18 day. The format is organism-based.
The subject of series [10] is NCI-H3122. The series can be described thus: Antitumor activity against human NCI-H3122 cells xenografted in BALB/c nude mouse assessed as reduction in tumor weight at 50 mg/kg, IG administered once daily for 18 days and measured after 12 hrs of last dose. The format is functional, organism-based. The note with it: time 444.0 hrs.
Series [11] in a line: Toxicity in BALB/c nude mouse xenografted with human NCI-H3122 cells assessed as tolerance at 25 to 50 mg/kg, IG administered once daily for 18 days. The note with it: in vivo, po, 432 h, dose 25-50 mg/kg, time 18 day. The format is organism-based.
Series [12] has as its target ALK tyrosine kinase receptor (Homo sapiens) (UniProt Q9UM73). The series can be described thus: Inhibition of ALK (unknown origin) at 1 uM by LANCE Ultra TR-FRET assay relative to control. A general note: TR-FRET usually uses a lanthanide donor and a delayed reading to cut background.
Series [13] has the same target. The experiment in a line: Inhibition of ALK (unknown origin) at 0.05 uM by LANCE Ultra TR-FRET assay relative to control.
The next series has as its system Mus musculus. The series can be described thus: In vivo PROTAC activity at CRBN/EML4-ALK in BALB/c nude mouse xenografted with human NCI-H3122 cells assessed as reduction in EML4-ALK protein expression in tumor at 50 mg/kg, IG administered once daily for 18 days and measured after 12 hrs of last dose by immunohistochemical analysis. The class given is functional, organism-based. The following applies: time 444.0 hrs.

Series [14] is described as follows: Toxicity in BALB/c nude mouse xenografted with human NCI-H3122 cells assessed as effect on visceral spleen morphology at 50 mg/kg, IG administered once daily for 18 days and measured after 12 hrs of last dose by H and E staining based assay. The class given is organism-based. The following applies: in vivo, po, 444 h.
The nature of series [15]: Toxicity in BALB/c nude mouse xenografted with human NCI-H3122 cells assessed as effect on visceral kidney morphology at 50 mg/kg, IG administered once daily for 18 days and measured after 12 hrs of last dose by H and E staining based assay. The class given is organism-based. The note with it: in vivo, po, 444 h.
The nature of series [16]: Toxicity in BALB/c nude mouse xenografted with human NCI-H3122 cells assessed as effect on visceral liver morphology at 50 mg/kg, IG administered once daily for 18 days and measured after 12 hrs of last dose by H and E staining based assay. The format is organism-based. The following applies: in vivo, po, 444 h.
Series [17] is described as follows: Toxicity in BALB/c nude mouse xenografted with human NCI-H3122 cells assessed as effect on lung function at 50 mg/kg, IG administered once daily for 18 days by H and E staining based assay. The format is organism-based. The following applies: in vivo, po, 432 h, time 18 day.
The target in series [18] is Protein cereblon/ALK tyrosine kinase receptor (Homo sapiens, UniProt Q96SW2+Q9UM73). The series can be described thus: PROTAC activity at CRBN/ALK in human NCI-H3122 cells assessed as induction of ALK degradation incubated for 24 hrs by Western blot analysis. The class given is cell-based.
Protein cereblon/ALK tyrosine kinase receptor, sequence (Q9UM73 whole entry): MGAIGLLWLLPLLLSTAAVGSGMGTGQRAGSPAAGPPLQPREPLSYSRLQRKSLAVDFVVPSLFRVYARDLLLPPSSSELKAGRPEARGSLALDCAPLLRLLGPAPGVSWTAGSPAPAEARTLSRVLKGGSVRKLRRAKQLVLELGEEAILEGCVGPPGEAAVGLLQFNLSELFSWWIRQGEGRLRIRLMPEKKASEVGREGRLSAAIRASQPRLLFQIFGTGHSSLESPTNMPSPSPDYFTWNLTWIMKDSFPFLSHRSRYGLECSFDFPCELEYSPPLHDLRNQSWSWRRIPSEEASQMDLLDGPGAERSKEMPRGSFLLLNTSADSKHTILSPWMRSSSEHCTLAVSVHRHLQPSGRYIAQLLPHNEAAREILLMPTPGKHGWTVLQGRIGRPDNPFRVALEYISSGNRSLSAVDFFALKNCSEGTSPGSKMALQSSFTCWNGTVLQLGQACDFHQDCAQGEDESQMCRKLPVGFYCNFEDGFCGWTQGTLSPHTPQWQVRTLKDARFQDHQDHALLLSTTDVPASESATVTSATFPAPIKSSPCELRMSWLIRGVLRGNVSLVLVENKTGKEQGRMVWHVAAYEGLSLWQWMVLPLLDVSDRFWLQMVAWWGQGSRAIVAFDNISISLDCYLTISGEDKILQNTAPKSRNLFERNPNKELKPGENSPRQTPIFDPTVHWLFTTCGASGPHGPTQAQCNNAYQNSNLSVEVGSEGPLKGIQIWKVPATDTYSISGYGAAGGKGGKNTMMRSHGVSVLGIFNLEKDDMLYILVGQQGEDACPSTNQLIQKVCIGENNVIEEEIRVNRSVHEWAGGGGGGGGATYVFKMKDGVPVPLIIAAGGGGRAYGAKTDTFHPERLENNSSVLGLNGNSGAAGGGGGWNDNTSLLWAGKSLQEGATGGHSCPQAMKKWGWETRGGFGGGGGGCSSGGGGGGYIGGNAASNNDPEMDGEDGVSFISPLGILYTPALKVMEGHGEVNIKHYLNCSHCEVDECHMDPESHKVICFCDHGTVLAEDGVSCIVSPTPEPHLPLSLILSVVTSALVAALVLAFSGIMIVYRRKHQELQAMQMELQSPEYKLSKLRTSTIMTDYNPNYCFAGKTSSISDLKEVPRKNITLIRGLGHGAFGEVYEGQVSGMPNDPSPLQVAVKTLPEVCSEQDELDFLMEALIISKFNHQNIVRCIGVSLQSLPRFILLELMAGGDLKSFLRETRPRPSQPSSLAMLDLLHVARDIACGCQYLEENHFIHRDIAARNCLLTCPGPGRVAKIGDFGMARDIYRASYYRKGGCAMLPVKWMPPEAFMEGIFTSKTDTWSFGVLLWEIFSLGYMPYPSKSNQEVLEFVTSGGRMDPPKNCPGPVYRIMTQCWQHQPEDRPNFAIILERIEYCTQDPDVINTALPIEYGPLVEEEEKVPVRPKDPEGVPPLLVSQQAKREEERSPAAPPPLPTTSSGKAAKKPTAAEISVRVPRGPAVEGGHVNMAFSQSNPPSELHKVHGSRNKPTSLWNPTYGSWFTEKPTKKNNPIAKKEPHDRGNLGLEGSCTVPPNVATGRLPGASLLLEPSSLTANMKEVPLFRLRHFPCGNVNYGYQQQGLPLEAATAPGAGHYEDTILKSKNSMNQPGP
Protein cereblon/ALK tyrosine kinase receptor, sequence (Q96SW2 whole entry): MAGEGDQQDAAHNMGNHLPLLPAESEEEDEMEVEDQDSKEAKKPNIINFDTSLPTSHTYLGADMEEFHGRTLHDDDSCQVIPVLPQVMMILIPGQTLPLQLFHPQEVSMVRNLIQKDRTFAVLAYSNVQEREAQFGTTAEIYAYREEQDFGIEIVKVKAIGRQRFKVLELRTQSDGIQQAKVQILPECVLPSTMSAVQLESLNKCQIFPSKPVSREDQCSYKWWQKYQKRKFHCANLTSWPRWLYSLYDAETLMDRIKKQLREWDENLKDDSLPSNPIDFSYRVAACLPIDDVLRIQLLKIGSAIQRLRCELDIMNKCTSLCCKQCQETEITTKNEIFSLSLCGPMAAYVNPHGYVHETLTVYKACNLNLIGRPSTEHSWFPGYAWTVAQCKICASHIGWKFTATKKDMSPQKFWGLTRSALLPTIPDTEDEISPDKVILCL
Series [19] is described as follows: Toxicity in BALB/c nude mouse xenografted with human NCI-H3122 cells assessed as effect on kidney function at 50 mg/kg, IG administered once daily for 18 days by H and E staining based assay. The format is organism-based. The following applies: in vivo, po, 432 h, time 18 day.
The nature of series [20]: Toxicity in BALB/c nude mouse xenografted with human NCI-H3122 cells assessed as effect on visceral lung morphology at 50 mg/kg, IG administered once daily for 18 days and measured after 12 hrs of last dose by H and E staining based assay. The class given is organism-based. The note with it: in vivo, po, 444 h.

SMILES strings stand for the structures. The source made the active and inactive calls. The rule behind the calls is not given here.

ALK tyrosine kinase receptor (Homo sapiens), sequence (Q9UM73 19-1620 limits assumed): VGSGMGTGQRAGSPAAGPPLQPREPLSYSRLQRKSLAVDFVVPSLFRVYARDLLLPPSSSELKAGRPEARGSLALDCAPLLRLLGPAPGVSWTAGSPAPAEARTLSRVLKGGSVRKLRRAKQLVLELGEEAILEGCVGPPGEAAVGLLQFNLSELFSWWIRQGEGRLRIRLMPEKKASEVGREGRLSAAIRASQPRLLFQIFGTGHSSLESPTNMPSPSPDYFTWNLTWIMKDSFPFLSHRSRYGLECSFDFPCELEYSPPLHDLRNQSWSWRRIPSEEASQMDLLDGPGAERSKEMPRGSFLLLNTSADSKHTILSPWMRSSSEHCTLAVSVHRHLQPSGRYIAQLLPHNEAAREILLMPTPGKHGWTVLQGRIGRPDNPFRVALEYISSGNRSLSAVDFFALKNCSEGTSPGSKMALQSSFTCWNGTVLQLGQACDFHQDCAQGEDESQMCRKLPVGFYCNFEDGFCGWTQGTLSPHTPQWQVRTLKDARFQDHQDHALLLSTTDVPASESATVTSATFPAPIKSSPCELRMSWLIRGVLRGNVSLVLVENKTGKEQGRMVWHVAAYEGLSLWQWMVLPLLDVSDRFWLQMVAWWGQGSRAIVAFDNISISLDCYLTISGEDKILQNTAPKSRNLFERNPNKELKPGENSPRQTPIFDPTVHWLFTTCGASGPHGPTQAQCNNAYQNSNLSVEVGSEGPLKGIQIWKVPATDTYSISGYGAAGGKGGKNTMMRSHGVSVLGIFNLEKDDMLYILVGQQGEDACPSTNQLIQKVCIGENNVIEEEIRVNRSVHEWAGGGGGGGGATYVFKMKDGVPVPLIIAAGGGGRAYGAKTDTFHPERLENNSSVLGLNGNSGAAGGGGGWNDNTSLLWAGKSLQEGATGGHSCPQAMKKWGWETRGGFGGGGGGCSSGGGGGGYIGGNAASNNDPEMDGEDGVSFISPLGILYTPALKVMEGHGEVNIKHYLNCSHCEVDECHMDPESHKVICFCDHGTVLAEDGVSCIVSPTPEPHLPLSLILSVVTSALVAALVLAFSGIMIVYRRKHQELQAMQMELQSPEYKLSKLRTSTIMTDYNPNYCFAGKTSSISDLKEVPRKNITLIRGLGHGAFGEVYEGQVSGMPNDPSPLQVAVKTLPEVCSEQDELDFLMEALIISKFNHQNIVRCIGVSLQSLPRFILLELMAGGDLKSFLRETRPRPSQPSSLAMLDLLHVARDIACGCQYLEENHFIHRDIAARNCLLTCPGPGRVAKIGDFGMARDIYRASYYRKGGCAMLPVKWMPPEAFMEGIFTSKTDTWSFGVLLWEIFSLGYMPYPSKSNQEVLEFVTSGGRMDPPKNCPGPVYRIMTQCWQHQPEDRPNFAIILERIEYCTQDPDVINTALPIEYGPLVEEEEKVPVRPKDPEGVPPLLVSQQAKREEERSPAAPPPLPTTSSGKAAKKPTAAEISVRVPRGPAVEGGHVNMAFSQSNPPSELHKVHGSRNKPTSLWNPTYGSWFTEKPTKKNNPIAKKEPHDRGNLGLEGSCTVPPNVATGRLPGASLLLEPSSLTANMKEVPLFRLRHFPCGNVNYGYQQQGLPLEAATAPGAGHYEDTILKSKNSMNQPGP

By IC50 is commonly meant the concentration at which inhibition is half-maximal. By inhibition is commonly meant the change of the read-out against control, counted positive when it falls. What is called EC50 is the concentration needed to bring the measured effect to its halfway point. As to `Cc1cc(Nc2ncc(Cl)c(Nc3ccccc3S(=O)(=O)C(C)C)n2)c(OC(C)C)cc1C1CCN(C(=O)CCCCCCC(=O)N(CCS)CC(=O)NCCNc2cccc3c2C(=O)N(C2CCC(=O)NC2=O)C3=O)CC1` (stereo unspecified), the Activity entry in series [1], in [3], in [7], in [8], in series [9] and in series [11] was “Non-Toxic” in each case. Besides, the Activity entry in series [14], in series [15], in [16], in series [17], in series [19] and in [20] was “Non-Toxic” in each case. The IC50 was 380 nM in the series with NCI-H3122 [2] and 190 nM with NCI-H3122 [6]. Moreover, the result in the series on NCI-H3122 [4], in the series on NCI-H3122 [10] and in the series with Mus musculus was Active. The inhibition in vivo at 50 mg/kg in the series with NCI-H3122 [5] was found to be 51.1%. The results for the inhibition in series [12] and in [13] were 93% and 82.2%, respectively. The EC50 in [18] is 690 nM.
